Assay results published in patent publication US20240269139A1, “COMPOUNDS FOR TARGETED PROTEIN DEGRADATION OF KINASES” (DANA-FARBER CANCER INSTITUTE, INC., priority 2020, published 2024).
Several values for one entry are separate records, joined by “and”; a condition that tells them apart may be missing. Equal values may be shown once. Read-outs that look alike come from different tables or passages of the source.

Legend:
Format in all cases: cell-based
[1] = biological target: T1, protein kinases (human kinome) (Homo sapiens, UniProt Q13546)
T1 sequence (Q13546 1-671): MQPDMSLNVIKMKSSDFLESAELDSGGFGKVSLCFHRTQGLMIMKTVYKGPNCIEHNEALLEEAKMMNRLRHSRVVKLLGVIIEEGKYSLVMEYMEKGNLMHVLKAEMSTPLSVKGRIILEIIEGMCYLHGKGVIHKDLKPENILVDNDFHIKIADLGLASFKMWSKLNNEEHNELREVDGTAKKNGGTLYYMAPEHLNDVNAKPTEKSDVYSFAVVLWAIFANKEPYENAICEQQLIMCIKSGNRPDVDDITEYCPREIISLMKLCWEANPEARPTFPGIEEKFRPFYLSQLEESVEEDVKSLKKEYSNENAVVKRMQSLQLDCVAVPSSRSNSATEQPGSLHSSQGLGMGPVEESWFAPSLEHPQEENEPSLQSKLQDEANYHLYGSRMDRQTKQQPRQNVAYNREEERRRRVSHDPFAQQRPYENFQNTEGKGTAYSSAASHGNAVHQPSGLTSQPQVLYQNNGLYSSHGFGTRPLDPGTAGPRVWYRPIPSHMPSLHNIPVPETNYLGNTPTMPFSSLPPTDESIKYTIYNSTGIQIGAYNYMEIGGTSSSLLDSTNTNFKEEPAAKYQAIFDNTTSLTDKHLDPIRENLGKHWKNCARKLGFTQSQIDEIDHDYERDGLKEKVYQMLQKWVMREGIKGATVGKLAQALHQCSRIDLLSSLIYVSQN

[2] = biological target: T2, protein kinases (human kinome) (Homo sapiens, UniProt Q8TD19)
T2 sequence (Q8TD19 1-979): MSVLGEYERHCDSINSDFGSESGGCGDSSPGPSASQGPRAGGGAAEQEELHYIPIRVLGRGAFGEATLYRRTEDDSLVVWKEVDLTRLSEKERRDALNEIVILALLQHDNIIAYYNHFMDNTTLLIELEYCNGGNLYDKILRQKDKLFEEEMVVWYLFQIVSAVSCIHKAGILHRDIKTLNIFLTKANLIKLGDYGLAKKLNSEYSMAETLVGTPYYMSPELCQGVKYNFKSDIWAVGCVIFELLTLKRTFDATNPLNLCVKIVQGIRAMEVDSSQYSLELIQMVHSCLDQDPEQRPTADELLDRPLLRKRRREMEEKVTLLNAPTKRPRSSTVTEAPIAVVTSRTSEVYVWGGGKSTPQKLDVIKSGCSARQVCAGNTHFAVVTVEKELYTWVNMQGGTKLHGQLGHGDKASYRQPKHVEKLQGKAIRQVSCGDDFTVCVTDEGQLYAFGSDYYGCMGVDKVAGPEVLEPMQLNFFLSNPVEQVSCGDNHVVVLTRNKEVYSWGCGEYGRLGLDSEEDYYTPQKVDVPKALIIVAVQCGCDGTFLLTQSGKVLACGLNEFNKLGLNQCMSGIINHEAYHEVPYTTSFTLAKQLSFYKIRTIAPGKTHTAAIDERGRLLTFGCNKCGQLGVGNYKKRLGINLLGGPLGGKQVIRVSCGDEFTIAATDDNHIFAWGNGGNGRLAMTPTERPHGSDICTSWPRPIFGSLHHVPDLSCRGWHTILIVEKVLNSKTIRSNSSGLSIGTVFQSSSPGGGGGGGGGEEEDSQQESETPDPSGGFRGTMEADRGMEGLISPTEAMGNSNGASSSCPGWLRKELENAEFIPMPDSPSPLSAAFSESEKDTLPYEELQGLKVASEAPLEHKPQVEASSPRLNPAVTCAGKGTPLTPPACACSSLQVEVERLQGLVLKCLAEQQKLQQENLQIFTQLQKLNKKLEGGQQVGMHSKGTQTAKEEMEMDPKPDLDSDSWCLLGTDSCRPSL

[3] = biological target: protein kinases (human kinome) (Homo sapiens, UniProt Q7KZI7)
[4] = biological target: protein kinases (human kinome) (Homo sapiens, UniProt P53350)
[5] = NEK9 (Q8TD19), experiment wp045, direction down
[6] = NEK9 (Q8TD19), experiment wp117, direction down
[7] = PLK1 P53350, experiment wp133, 1 hr
[8] = PLK1 P53350, experiment wp133, 2 hr
[9] = PLK1 P53350, experiment wp133, 4 hr

Chain of protein kinases (human kinome) (Homo sapiens, UniProt P53350) (P53350 whole entry): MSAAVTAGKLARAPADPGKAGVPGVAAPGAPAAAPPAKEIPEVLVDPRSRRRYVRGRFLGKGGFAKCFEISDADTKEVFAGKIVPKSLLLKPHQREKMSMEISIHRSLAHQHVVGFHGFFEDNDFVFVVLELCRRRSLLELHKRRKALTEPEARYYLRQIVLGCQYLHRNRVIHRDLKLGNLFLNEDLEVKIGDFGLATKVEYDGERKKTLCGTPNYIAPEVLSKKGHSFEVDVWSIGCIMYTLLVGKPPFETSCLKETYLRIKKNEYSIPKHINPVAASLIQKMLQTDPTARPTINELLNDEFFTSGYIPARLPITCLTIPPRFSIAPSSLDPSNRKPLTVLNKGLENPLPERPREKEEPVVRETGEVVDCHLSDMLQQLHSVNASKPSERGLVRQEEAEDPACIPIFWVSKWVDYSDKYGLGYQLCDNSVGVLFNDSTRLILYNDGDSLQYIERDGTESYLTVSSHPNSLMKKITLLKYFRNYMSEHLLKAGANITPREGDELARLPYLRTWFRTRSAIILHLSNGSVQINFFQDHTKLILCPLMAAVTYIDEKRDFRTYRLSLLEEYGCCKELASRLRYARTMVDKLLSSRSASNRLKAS
Chain of protein kinases (human kinome) (Homo sapiens, UniProt Q7KZI7) (Q7KZI7 whole entry): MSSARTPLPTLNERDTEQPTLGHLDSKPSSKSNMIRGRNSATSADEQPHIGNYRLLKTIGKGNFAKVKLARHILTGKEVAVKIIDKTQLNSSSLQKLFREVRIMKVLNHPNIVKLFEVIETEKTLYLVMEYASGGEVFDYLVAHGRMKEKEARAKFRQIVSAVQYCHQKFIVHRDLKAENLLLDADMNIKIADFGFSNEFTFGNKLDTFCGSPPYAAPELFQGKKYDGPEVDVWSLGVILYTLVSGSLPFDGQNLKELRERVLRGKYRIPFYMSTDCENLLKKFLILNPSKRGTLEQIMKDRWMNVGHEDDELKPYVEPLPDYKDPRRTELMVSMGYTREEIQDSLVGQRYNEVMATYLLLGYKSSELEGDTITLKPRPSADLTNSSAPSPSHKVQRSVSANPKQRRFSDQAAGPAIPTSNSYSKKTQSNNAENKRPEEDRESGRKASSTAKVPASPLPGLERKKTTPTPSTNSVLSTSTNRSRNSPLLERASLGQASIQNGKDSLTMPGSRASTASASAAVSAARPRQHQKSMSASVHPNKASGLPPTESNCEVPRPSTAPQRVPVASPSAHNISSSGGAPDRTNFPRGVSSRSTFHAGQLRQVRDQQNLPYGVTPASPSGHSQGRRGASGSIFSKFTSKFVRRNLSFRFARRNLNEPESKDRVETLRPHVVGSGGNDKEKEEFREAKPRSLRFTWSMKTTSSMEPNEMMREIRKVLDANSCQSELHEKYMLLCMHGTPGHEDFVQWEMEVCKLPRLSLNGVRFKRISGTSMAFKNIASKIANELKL

Cc1ccc(C(=O)Nc2ccc(CN3CCN(CCOCCOCCNC(=O)CNc4cccc5c4C(=O)N(C4CCC(=O)NC4=O)C5=O)CC3)c(C(F)(F)F)c2)cc1C#Cc1cnc2cccnn12 (centres unmarked) [TL13.150]
logFC RIPK1 (Q13546) ([1]; experiment wp081): −0.667

CS(=O)(=O)Nc1cccc(-c2csc3cnc(Nc4ccc(N5CCN(CCOCCOCCOc6cccc7c6C(=O)N(C6CCC(=O)NC6=O)C7=O)CC5)cc4)nc23)c1 (centres unmarked) [RSS0628]
logFC [2, 5]: −2.438
logFC ([2]; NEK9 Q8TD19, experiment wp045): −2.438

O=C(COc1cccc2c1C(=O)N(C1CCC(=O)NC1=O)C2=O)NCCCCCCCN1CCc2cc(Nc3ncc(C4CC4)c(NCCCNC(=O)C4CCC4)n3)ccc2C1 (centres unmarked) [BSJ.04.178]
logFC ([3]; MARK2 (Q7KZI7-1), experiment wp134, direction down): −0.9686
logFC ([3]; MARK2 Q7KZI7-1, experiment wp134): −0.9686

O=C1CCC(N2C(=O)c3cccc(NCCCCCCCCN4CCC(NC(=O)c5[nH]ncc5NC(=O)c5c(Cl)cccc5Cl)CC4)c3C2=O)C(=O)N1 (centres unmarked) [MFH.5.126.1]
logFC ([4]; PLK1 P53350, experiment wp076): −1.071
logFC PLK1 ([4]; PLK1 P53350, experiment wp076): −1.071

CS(=O)(=O)Nc1cccc(-c2csc3cnc(Nc4ccc(N5CCN(CCCCCOc6cccc7c6C(=O)N(C6CCC(=O)NC6=O)C7=O)CC5)cc4)nc23)c1 (centres unmarked) [DB0614, N-(3-(2-((4-(4-(5-((2-(2,6-Dioxopiperidin-3-yl)-1,3-dioxoisoindolin-4-yl)oxy)pentyl)piperazin-1-yl)phenyl)amino)thieno[3,2-d]pyrimidin-7-yl)phenyl)methanesulfonamide]
logFC [2, 5]: −2.74
logFC [2, 6]: −3.006
logFC ([2]; NEK9 Q8TD19, experiment wp045): −2.74
logFC ([2]; NEK9 Q8TD19, experiment wp117): −3.006

Cc1cc(Nc2ncc(Br)c(Nc3cccc(F)c3C(N)=O)n2)ccc1S(=O)(=O)NCCOCCOCCOCCOCCNc1cccc2c1C(=O)N(C1CCC(=O)NC1=O)C2=O (centres unmarked) [TMX.02.174]
logFC ([2]; NEK9 (Q8TD19), experiment wp146, direction down): −0.3626
logFC ([2]; NEK9 Q8TD19, experiment wp146): −0.3626

Cc1ccc(C(=O)Nc2ccc(CN3CCN(CCCOCCOCCOCCNC(=O)COc4cccc5c4C(=O)N(C4CCC(=O)NC4=O)C5=O)CC3)c(C(F)(F)F)c2)cc1C#Cc1cnc2cccnn12 (centres unmarked) [SB1.G.187]
logFC RIPK1 (Q13546) ([1]; Experiment wp172): −0.9666 and −0.9656
logFC RIPK1 (Q13546) ([1]; experiment wp056): −1.288
logFC RIPK1 (Q13546) ([1]; experiment wp103): −1.767
logFC RIPK1 (Q13546) ([1]; experiment wp105): −1.141
logFC RIPK1 (Q13546) ([1]; experiment wp107): −1.502

CC(C)(C)c1nc(-c2cccc(NS(=O)(=O)c3c(F)cccc3F)c2F)c(-c2ccnc(NCCOCCNC(=O)CCOCCOCCNc3cccc4c3C(=O)N(C3CCC(=O)NC3=O)C4=O)n2)s1 (centres unmarked) [DD.03.106]
logFC PLK1 ([4]; PLK1 P53350, experiment wp147, 4 uM): −0.3533
logFC ([4]; PLK (P53350), experiment wp147, 4 uM): −0.3533

Cc1cnc(Nc2ccc(N3CCN(CCCCCCC(=O)N[C@H](C(=O)N4C[C@H](O)C[C@H]4C(=O)N[C@@H](C)c4ccc(-c5scnc5C)cc4)C(C)(C)C)CC3)cc2)nc1Nc1cccc(S(=O)(=O)NC(C)(C)C)c1 [JWG.123]
logFC ([2]; NEK9 (Q8TD19), experiment wp195, direction down): −1.079
logFC ([2]; NEK9 Q8TD19, experiment wp195): −1.079

Cc1ccc(NC(=O)c2cccc(C(F)(F)F)c2)cc1N1Cc2cnc(Nc3ccc(N4CCN(Cc5cn(CCCCCOc6cccc7c6C(=O)N(C6CCC(=O)NC6=O)C7=O)nn5)CC4)nc3)nc2N(C)C1=O (centres unmarked) [DB0646, N-(3-(7-((6-(4-((1-(5-((2-(2,6-Dioxopiperidin-3-yl)-1,3-dioxoisoindolin-4-yl)oxy)pentyl)-1H-1,2,3-triazol-4-yl)methyl)piperazin-1-v)pyridin-3-yl)amino)-1-methyl-2-oxo-1,4-dihydropyrimido[4,5-d]pyrimidin-3(2H)-yl)-4-methylphenyl)-3-(trifluoromethyl)benzamide]
logFC RIPK1 (Q13546) ([1]; experiment wp045): −0.7115
logFC RIPK1 (Q13546) ([1]; experiment wp103): −0.4796
logFC RIPK1 (Q13546) ([1]; experiment wp105): −0.4233
logFC RIPK1 (Q13546) ([1]; experiment wp107): −0.5121
logFC RIPK1 (Q13546) ([1]; experiment wp117): −0.616
logFC RIPK1 (Q13546) ([1]; experiment wp152): −0.5495
logFC RIPK1 (Q13546) ([1]; experiment wp160, 4 hr): −0.3907
logFC RIPK1 (Q13546) ([1]; experiment wp160, 8 hr): −0.8745
logFC ([4]; PLK1 P53350, experiment wp152): −0.331
logFC PLK1 ([4]; PLK1 P53350, experiment wp152): −0.331

Cc1ncsc1-c1ccc([C@H](C)NC(=O)[C@@H]2C[C@@H](O)CN2C(=O)[C@@H](NC(=O)CCCCCN2CCN(c3ccc(Nc4ncc5scc(-c6cccc(NS(C)(=O)=O)c6)c5n4)cc3)CC2)C(C)(C)C)cc1 [RSS0680, (2S,4R)-1-((S)-3,3-Dimethyl-2-(6-(4-(4-((7-(3-(methylsulfonamido)phenyl)thieno[3,2-d]pyrimidin-2-yl)amino)phenyl)piperazin-1-yl)hexanamido)butanoyl)-4-hydroxy-N—((S)-1-(4-(4-methylthiazol-5yl)phenyl)ethyl)pyrrolidine-2-carboxamide]
logFC ([3]; MARK2 (Q7KZI7-1), experiment wp117, direction down): −0.4286
logFC ([3]; MARK2 Q7KZI7-1, experiment wp117): −0.4286
logFC ([2]; NEK9 (Q8TD19), experiment wp080, direction down): −1.277
logFC [2, 6]: −1.483
logFC ([2]; NEK9 Q8TD19, experiment wp080): −1.277
logFC ([2]; NEK9 Q8TD19, experiment wp117): −1.483

CC(C)S(=O)(=O)c1ccccc1Nc1nc(Nc2ccc(N3CCN(CCOCCNC(=O)CNc4cccc5c4C(=O)N(C4CCC(=O)NC4=O)C5=O)CC3)cc2)ncc1Cl (centres unmarked) [SK.3.91]
logFC ([3]; MARK2 (Q7KZI7-1), experiment wp107, direction down): −0.5266
logFC ([3]; MARK2 (Q7KZI7-1), experiment wp172, direction down): −0.6351
logFC ([3]; MARK2 Q7KZI7-1, experiment wp107): −0.5266
logFC ([3]; MARK2 Q7KZI7-1, experiment wp172): −0.6351
logFC [4, 7]: −0.5591
logFC PLK1 [4, 7]: −0.5591
logFC [4, 8]: −0.5804
logFC PLK1 [4, 8]: −0.5804
logFC [4, 9]: −0.7482
logFC PLK1 [4, 9]: −0.7482

Cc1ccc(NC(=O)c2cccc(C(F)(F)F)c2)cc1N1Cc2cnc(Nc3ccc(N4CCN(CCCCC(=O)N[C@H](C(=O)N5C[C@H](O)C[C@H]5C(=O)N[C@@H](C)c5ccc(-c6scnc6C)cc5)C(C)(C)C)CC4)nc3)nc2N(C)C1=O [DB1113]
logFC RIPK1 (Q13546) ([1]; experiment wp168): −1.99

Cc1ncsc1-c1ccc([C@H](C)NC(=O)[C@@H]2C[C@@H](O)CN2C(=O)[C@@H](NC(=O)CCCCCN2CCc3cc(Nc4ncc(C5CC5)c(NCCCNC(=O)C5CCC5)n4)ccc3C2)C(C)(C)C)cc1 [BSJ.05.026]
logFC ([3]; MARK2 (Q7KZI7-1), experiment wp195, direction down): −1.239
logFC ([3]; MARK2 Q7KZI7-1, experiment wp195): −1.239

CCc1cnn2c(N(Cc3ccc(N)nc3)C(=O)CCOCCOCCOCCNC(=O)CNc3cccc4c3C(=O)N(C3CCC(=O)NC3=O)C4=O)cc(N3CCCC[C@H]3CCO)nc12 (some centres unmarked) [MFH.5.115.2]
logFC ([4]; PLK1 P53350, experiment wp076): −0.56
logFC PLK1 ([4]; PLK1 P53350, experiment wp076): −0.56
